# In patent publication US20170066759A1, “AROMATIC 5-MEMBERED HETEROCYCLIC DERIVATIVE HAVING TRPV4-INHIBITING ACTIVITY” (Shionogi & Co., Ltd., priority 2012, published 2017):
# Target: T1, human TRPV4 (hTRPV4/CHO cells) (Homo sapiens, UniProt Q9HBA0)
# T1 construct: expressed in transfected cells; host or cells: CHO-K1
# Experiment: Test Example 1: TRPV4 inhibitory activity (IC50 value), 4α-PDD stimulation, Fluo4 calcium fluorescence (FLIPR TETRA)
# Format: cell-based
# Settings: Test Example 1, 4α-PDD stimulation, read-out: Test 1 IC50
# T1 sequence (Q9HBA0 whole entry): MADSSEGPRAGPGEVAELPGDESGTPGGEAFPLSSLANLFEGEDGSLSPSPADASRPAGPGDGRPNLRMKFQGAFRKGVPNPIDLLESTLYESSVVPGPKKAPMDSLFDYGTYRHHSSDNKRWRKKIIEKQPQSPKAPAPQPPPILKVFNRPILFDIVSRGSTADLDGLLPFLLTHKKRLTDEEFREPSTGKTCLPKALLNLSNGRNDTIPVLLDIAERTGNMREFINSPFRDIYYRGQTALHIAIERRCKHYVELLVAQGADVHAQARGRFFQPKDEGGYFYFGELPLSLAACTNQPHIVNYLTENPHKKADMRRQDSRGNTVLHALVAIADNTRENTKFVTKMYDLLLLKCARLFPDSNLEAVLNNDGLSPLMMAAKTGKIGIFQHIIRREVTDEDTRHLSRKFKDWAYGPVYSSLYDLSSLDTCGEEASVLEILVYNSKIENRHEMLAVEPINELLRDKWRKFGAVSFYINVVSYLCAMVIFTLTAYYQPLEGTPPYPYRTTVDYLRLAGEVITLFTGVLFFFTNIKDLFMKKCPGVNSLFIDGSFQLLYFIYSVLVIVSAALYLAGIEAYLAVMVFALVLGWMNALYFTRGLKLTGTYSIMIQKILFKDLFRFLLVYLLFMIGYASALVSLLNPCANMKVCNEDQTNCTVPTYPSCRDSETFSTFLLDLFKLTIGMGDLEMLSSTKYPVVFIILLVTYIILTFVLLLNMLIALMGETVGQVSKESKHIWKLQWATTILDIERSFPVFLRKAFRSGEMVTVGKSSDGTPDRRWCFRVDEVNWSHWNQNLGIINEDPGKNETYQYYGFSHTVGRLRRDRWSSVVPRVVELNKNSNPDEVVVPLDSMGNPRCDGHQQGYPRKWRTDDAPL
row,Compound,IC50 [nM]
1,Cc1nc(C)c(-c2nc(NC(=O)Cc3c(F)cccc3F)sc2C(=O)Nc2ccccc2Cl)s1 [Compound I-86],1000 to 8000
2,Cc1nc(C)c(-c2csc(NC(=O)Cn3cc(Cl)cn3)n2)o1 [Compound I-140],1000 to 8000
3,O=C(Nc1nc(-c2sc(CO)nc2CO)cs1)[C@H]1C[C@H](F)C1 [Compound I-248],1000 to 8000
4,Cc1nc(C)c(-c2csc(NC(=O)N(C)c3c(F)cccc3F)n2)s1 [Compound I-91],1000 to 8000
5,Cc1nc(C)c(-c2nc(NC(=O)Cc3c(F)cccc3F)sc2C(=O)Nc2ccc(Cl)cc2)s1 [Compound I-85],1000 to 8000
6,Cc1nc(C)c(-c2csc(Nc3ccncc3)n2)s1 [II-41],1000 to 8000
7,Cc1nc(C(C)O)oc1-c1csc(NC(=O)Cn2cc(C(F)(F)F)cn2)n1 (racemic) [Compound I-420],1000 to 8000
8,Cc1nc(CO)oc1-c1csc(NC(=O)Cn2cc(C(F)(F)F)cn2)n1 [Compound I-419],1000 to 8000
9,COc1ccc(CN2CC(C(=O)Nc3nc(-c4sc(C)nc4C)cs3)C2)cn1 [Compound I-283],1000 to 8000
10,Cc1nc(C)c(-c2csc(NC(=N)Cc3ccc(Cl)cc3)n2)s1 [II-31],1000 to 8000
11,Cc1nc(C)c(-c2nc(NC(=O)Cc3c(F)cccc3F)sc2-c2ccc(N(C)C)cc2)s1 [Compound I-67],1000 to 8000
12,O=C(Nc1nc(-c2sc(CO)nc2CO)cs1)[C@@H]1C[C@@H](c2ccccc2)CN1C(=O)OCC(F)(F)F [Compound I-336],100 to 1000
13,NC(=O)NCc1nc(CO)sc1-c1csc(NC(=O)Cc2ccc(S(=O)(=O)C(F)(F)F)cc2)n1 [Compound I-381],100 to 1000
14,Cc1nc(C(=O)NC#N)sc1-c1csc(NC(=O)Cc2c(F)cccc2F)n1 [Compound I-108],1000 to 8000
15,Cc1nc(C)c(-c2csc(NC(=O)CN3CCC(O)(c4ccccc4)CC3)n2)s1 [Compound I-153],1000 to 8000
16,Cc1nc(C)c(-c2csc(NC(=O)CC3CN(Cc4ccc(C(F)(F)F)cc4)C3)n2)s1 [Compound I-491],1000 to 8000
17,Cc1nc(CO)c(-c2csc(NCCc3c(F)cccc3F)n2)s1 [II-3],100 to 1000
18,Cc1nc(C(F)F)sc1-c1csc(NC(=O)C2CC2(F)F)n1 (stereo not drawn) [Compound I-112],1000 to 8000
19,CC(O)c1nc(CO)c(-c2csc(NC(=O)Cc3ccc(S(=O)(=O)C(F)(F)F)cc3)n2)s1 (racemic) [Compound I-500],100 to 1000
20,Cc1nc(C)c(-c2csc(NC(=O)Cc3ccc(S(=O)(=O)C(C)C)cc3)n2)s1 [Compound I-122],100 to 1000
21,O=C(O)CCc1nc(CO)sc1-c1csc(NC(=O)C2CN(c3ccc(C(F)(F)F)cc3)C2)n1 [Compound I-351],1000 to 8000
22,O=C(Nc1nc(-c2sc(CO)nc2CO)cs1)[C@@H]1C[C@@H](c2ccccc2)CN1CC(F)(F)F [Compound I-337],1000 to 8000
23,Cc1nc(C)c(-c2csc(NC(=O)C3CC(C(C)(C)C)=NO3)n2)s1 (stereo not drawn) [Compound I-205],100 to 1000
24,Cc1nc(CO)c(-c2csc(NC(=O)Cc3c(F)cccc3F)n2)s1 [Compound I-96],100 to 1000
25,CC(=O)N1C[C@H](c2ccccc2)C[C@H]1C(=O)Nc1nc(-c2sc(C)nc2C)cs1 [Compound I-289],100 to 1000
26,Cc1nc(C)c(-c2csc(NC(=O)Cc3ccc(C(F)(F)F)cc3)n2)o1 [Compound I-139],100 to 1000
27,Cc1nc(C(C)(C)O)c(-c2csc(NC(=O)Cc3c(F)cccc3F)n2)s1 [Compound I-128],100 to 1000
28,Cc1nc(C)c(-c2nc(NC(=O)Cc3c(F)cccc3F)sc2C(=O)Nc2cccc(Cl)c2)s1 [Compound I-82],1000 to 8000

# Second part, the compound after the results:
row,IC50 [nM],Compound
1,< 100,Cc1nc(C)c(-c2csc(NC(=O)Cc3ccc(C(F)(F)F)cn3)n2)s1 [Compound I-104]
2,100 to 1000,Cc1nc(CO)sc1-c1csc(NC(=O)/C=C/c2ccc(Cl)cc2)n1 [Compound I-466]
3,< 100,Cc1nc(C)c(-c2csc(NC(=O)Cc3ccccc3[N+](=O)[O-])n2)s1 [Compound I-541]
4,100 to 1000,CN(Cc1nc(CO)sc1-c1csc(NC(=O)Cc2ccc(S(=O)(=O)C(F)(F)F)cc2)n1)C(=O)CO [Compound I-436]
5,100 to 1000,Cc1nc(CO)oc1-c1csc(NC(=O)Cc2ccc(S(=O)(=O)C(F)(F)F)cc2)n1 [Compound I-380]
6,100 to 1000,O=C(Nc1nc(-c2sc(CO)nc2CO)cs1)[C@H]1C[C@@H](OCc2ccccc2C(F)(F)F)C1 [Compound I-347]
7,100 to 1000,Cc1nc(C(N)=O)sc1-c1csc(NC(=O)Cn2cc(Cl)cn2)n1 [Compound I-127]
8,< 100,Cc1nc(C)c(-c2csc(NC(=O)Cc3cc(OCC4CC4)cc(C(=O)N[C@H](c4ccccc4)C(F)(F)F)c3)n2)s1 [Compound I-522]
9,100 to 1000,Cc1nc(CO)sc1-c1csc(NC(=O)[C@@H]2C[C@@H](c3ccccc3)CN2C(=O)C(C)C)n1 [Compound I-312]
10,100 to 1000,Cc1nc(C)c(-c2csc(NC(=O)C3Cc4ccccc4N3)n2)s1 (stereo not drawn) [Compound I-177]
11,< 100,Cc1nc(CO)sc1-c1csc(NC(=O)CC2CC3(CCC3)C2)n1 [Compound I-457]
12,< 100,Cc1nc(C)c(-c2csc(NC(=O)C3Cc4c([N+](=O)[O-])cc(Cl)c(Cl)c4O3)n2)s1 (stereo not drawn) [Compound I-201]
13,< 100,Cc1nc(C)c(-c2csc(NC(=O)[C@@H]3C[C@H](c4ccccc4)CN3C(=O)C(F)(F)F)n2)s1 [Compound I-271]
14,< 100,Cc1nc(C)c(-c2csc(NC(=O)Cc3cccc(S(=O)(=O)Nc4ccc(C(F)(F)F)cc4)c3)n2)s1 [Compound I-498]
15,< 100,Cc1nc(C)c(-c2csc(NC(=O)C3CN(S(=O)(=O)c4ccc(C(F)(F)F)cc4)C3)n2)s1 [Compound I-264]
16,< 100,Cc1nc(C)c(-c2csc(NC3CCCCC3)n2)s1 [II-37]
17,< 100,Cc1nc(C)c(-c2csc(NC(=O)C3(COCc4ccccc4)CN(c4ccc(C(F)(F)F)cc4)C3)n2)s1 (racemic) [Compound I-530]
18,< 100,Cc1nc(C)c(-c2csc(NC(=O)Cc3cccc(C(=O)Nc4ccccc4)c3)n2)s1 [Compound I-469]
19,< 100,Cc1nc(C(C)O)sc1-c1csc(NC(=O)Cc2ccc(S(=O)(=O)C(F)(F)F)cc2)n1 (racemic) [Compound I-287]
20,< 100,Cc1nc(C)c(-c2csc(NC(=O)C3CN(c4ccc(C(F)(F)F)cn4)C3)n2)s1 [Compound I-259]
21,< 100,Cc1nc(CO)sc1-c1csc(NC(=O)C2CCN(c3ccc(Cl)cc3)C2)n1 (stereo not drawn) [Compound I-204]
22,< 100,Cc1nc(C)c(-c2csc(NCC3Cc4ccccc4C3)n2)s1 [II-49]
23,< 100,Cc1nc(CN)sc1-c1csc(NC(=O)Cc2ccc(S(=O)(=O)C(F)(F)F)cc2)n1 [Compound I-396]
24,< 100,O=C(Cc1ccc(S(=O)(=O)C(F)(F)F)cc1)Nc1nc(-c2sc(CO)nc2/C=C/CO)cs1 [Compound I-320]
25,< 100,Cc1nc(C)c(-c2csc(Nc3cnccn3)n2)s1 [II-34]
26,< 100,Cc1nc(C)c(-c2csc(NC(=O)C3CN(c4cnc(C(F)(F)F)cn4)C3)n2)s1 [Compound I-534]
27,< 100,Cc1nc(C)c(-c2csc(NC(=O)C3CN(Cc4ccc(C(F)(F)F)cc4)C3)n2)s1 [Compound I-258]
28,< 100,Cc1nc(C)c(-c2csc(NC(=O)C3CN(c4ncc(C(F)(F)F)cn4)C3)n2)s1 [Compound I-278]
29,< 100,COc1cc(CC(=O)Nc2nc(-c3sc(C)nc3C)cs2)cc(C(=O)NC(c2ccccc2)C(F)(F)F)c1 (stereo not drawn) [Compound I-504]
